The values that follow come from patent publication US8894993B2, “Mitochondria-targeted antioxidants” (Natreon Inc., priority 2006, dated 2014).

SMILES strings stand for the structures.

Series [1] has as its system Catalase activity in liver. In words: Catalase activity in liver of mice after restraint stress. The class given is in vivo, Swiss albino mice. The conditions noted are these: 25 mg/Kg p.o. 7 days, control 3.9. The protocol: Swiss albino mice (20±2 g) were fed orally with—(a) 3-OH-DBP and (b) 3,8-(OH)2-DBP (each 25 mg/Kg b.w. per day, for 7 days). In case of the controls, only vehicle (0.8% carboxymethyl cellulose in water) was administered for seven days of the experiment. All the animals of all the groups were subjected to restraint stress (for 60 minutes) on the seventh day of the experiment, 2 hours after drug administration, according to a published method [Figueiredo, H. F., Bodie, B. L., Tauchi, M., Dolgas, C. M. and Herman, J. P. 2003. Endocrinology, 144, 5249-5258]. The model was selected in the present experiment, because restraint stress is a widely used model of acute oxidative stress. Immediately after being exposed to stress, the animals were sacrificed, blood was collected for analysis by HPLC of ATP and related nucleotides [Smolenska, Z., Kaznowska, Z., Zarowny, D., Simmonds, H. A. and Smolenski, R. T. 1999. […] AEC (adenylate energy charge) was calculated according to the method of Atkinson and Walton [Atkinson D E & Walton G M, Adenosine triphosphate conservation in metabolic regulation, J Biol Chem, 242 (1967) 3239] and TAN (total adenine nucleotides) was calculated according to an established method [Spencer M K & Katz A, Role of glycogen in control of glycolysis and IMP formation in human muscle during exercise, Am J Physiol, 260 (1991) E859]. […]

In series [2] the test system is Blood levels of ATP and energy related indices. Put plainly: Blood ATP and energy related indices in mice after restraint stress. The class given is in vivo, Swiss albino mice. The conditions noted are these: 25 mg/Kg p.o. 7 days. The procedure:
Swiss albino mice (20±2 g) were fed orally with—(a) 3-OH-DBP and (b) 3,8-(OH)2-DBP (each 25 mg/Kg b.w. per day, for 7 days). In case of the controls, only vehicle (0.8% carboxymethyl cellulose in water) was administered for seven days of the experiment. All the animals of all the groups were subjected to restraint stress (for 60 minutes) on the seventh day of the experiment, 2 hours after drug administration, according to a published method [Figueiredo, H. F., Bodie, B. L., Tauchi, M., Dolgas, C. M. and Herman, J. P. 2003. Endocrinology, 144, 5249-5258]. The model was selected in the present experiment, because restraint stress is a widely used model of acute oxidative stress. Immediately after being exposed to stress, the animals were sacrificed, blood was collected for analysis by HPLC of ATP and related nucleotides [Smolenska, Z., Kaznowska, Z., Zarowny, D., Simmonds, H. A. and Smolenski, R. T. 1999. Rheumatology, 38, 997-1002; Komarova, S. V., Mosharov, E. V., Vitvitsky, V. M. and Ataullakhanov, F. I. 1999. Blood Cell Mol. Dis., 25(13), 170-179; Marquardt, D. L., Gruber, H. E. and Wasserman, S. I. 1984. Proc. Natl. Acad. Sci., 81, 6192-6196], and liver was collected for measurement of superoxide dismutase and catalase activities [Zielinski, S, and Pörtner, H. 2000. Comparative Biochem. Physiol. Part B, 125, 147-[60]. AEC (adenylate energy charge) was calculated according to the method of Atkinson and Walton [Atkinson D E & Walton G M, Adenosine triphosphate conservation in metabolic regulation, J Biol Chem, 242 (1967) 3239] and TAN (total adenine nucleotides) was calculated according to an established method [Spencer M K & Katz A, Role of glycogen in control of glycolysis and IMP formation in human muscle during exercise, Am J Physiol, 260 (1991) E859].

Series [3] deals with stress-induced lipid peroxidation of mouse liver mitochondria. Put plainly: Stress-induced lipid peroxidation of mouse liver mitochondria (thiobarbituric acid reaction). The class given is in vivo, Swiss albino mice. As to conditions: oral each 5 mg/Kg b.w. per day for 5 days, hypoxic stress, control 0.495. The protocol:
Swiss albino mice (20±g) were fed orally with—(a) 3,8-(OH)2-DBP; (b) CoQ10; (c) a combination of 3,8-(OH)2-DBP and CoQ10 and (d) 3,8-(OH)2-DBP and CoQ10 in a clathrated form with fusoms (each 5 mg/Kg b.w.), per day, for 5 days. The animals were subjected to hypoxic stress for 1 hour each day for 3 days from the 3rd day of the experiment. After the stipulated time-period, brain and liver of the animals were collected and mitochondria from the liver were separated as described previously (Liu Y, Deng F, Zhao R and Qu S, Chemosphere, 40(8):851-854, 2000). Lipid peroxidation in brain and liver-mitochondria was estimated by the method of Ohkawa et al. (Ohkawa H, Ohishi N and Yagi K, Assay for lipid peroxides in animal tissues by thiobarbituric acid reaction. Anal. Biochem., 95:351-358, 1979).

Series [4] in a line: DBP products in mice liver mitochondria before and after DBPs treatment, HPTLC. It counts as in vivo, Swiss Albino mice. The conditions noted are these: one hour after i.p. 4:1 mixture of 3,8-(OH)2-DBP and 3-OH-DBP 20 mg/Kg. The protocol: Mitochondria were isolated from heart and liver of chicken, goat and mice following a published procedure (Liu Y, Deng F, Zhao R and Qu S, Chemosphere, 40(8):851-854, 2000). […] The tissue was cut into small pieces, homogenized and centrifuged at 900 g for one minute. The supernatant was again centrifuged twice, for 20 minutes each time at 900 g. The sediment at each step was discarded. The clear supernatant was centrifuged twice at 12,000 g, 20 minutes each time, to form pellets of a mitochondria-enriched fraction. The fraction was divided into two parts. One part was resuspended in a measured volume of distilled water and sonicated (10 min×2). […] The two extracts were subjected to comprehensive HPTLC and HPLC analyses for detection and quantitation of DBPs and their equivalents. […] One hour after administration the animals were sacrificed and mitochondria from liver were isolated and analyzed as described for Example 6. […] Mobile Phase—Chloroform:Methanol 90:10 Sample application—CAMAG LINOMAT 5 (Automated applicator) Detection—240 nm (CAMAG TLC SCANNER 3) 3-OH-DBP and 3,8-(OH)2-DBP (and their conjugates) were detected in mitochondria of control mice by HPTLC. Administration of DBPs to the animals increased the amount of DBPs and its products in mitochondria as detected by using authentic markers of the two DBPs (Table 2).

On to `O=c1oc2cc(O)ccc2c2ccc(O)cc12` [3,8-(OH)2-DBP, 3,8-dihydroxydibenzo-α-pyrone], for which, in series [1], the “Catalase activity in liver” value was determined as 3.4 U/mg tissue. This compound also returned an ADP in series [2] (mean ± SEM of 6, control 0.14 ± 0.02) of 0.09 ± 0.01 µM. In series [2] (mean ± SEM of 6, control 0.67 ± 0.03), this compound had an ATP of 0.64 ± 0.05 µM. Besides, the TAN in series [2] (mean ± SEM of 6, control 0.76 ± 0.03) amounted to 0.76 ± 0.06 µM. This compound had an AEC in series [2] (mean ± SEM of 6, control 0.89 ± 0.01) of 0.90 ± 0.01. Further, the ATP/ADP ratio in series [2] (mean ± SEM of 6, control 4.90 ± 0.32) stood at 6.96 ± 0.49. Also, in series [3], the “OD Values at 532 nm (lipid peroxidation)” value is reported as 0.395. Moreover, in series [4], the “Amount in mitochondria after DBP treatment” value is given as 2.3 nmol/gm wet wt.
